Measurements: PubChem BioAssay (NCI)
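A five-concentration, 48-hour dose response in 96-well plates underlies each endpoint, interpolated linearly between surrounding concentrations. GI50 = concentration required for 50% inhibition of growth. TGI denotes the concentration required for complete inhibition of growth.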

Assays:
Assay in all cases: NCI tumour cell line growth inhibition, 48 h
NCI-H226 lung = system: NCI-H226 lung
NCI-H23 lung = system: NCI-H23 lung
NCI-H460 lung = system: NCI-H460 lung
NCI-H522 lung = system: NCI-H522 lung
NCI/ADR-RES ovarian = system: NCI/ADR-RES ovarian
OVCAR-3 ovarian = system: OVCAR-3 ovarian
OVCAR-4 ovarian = system: OVCAR-4 ovarian
OVCAR-5 ovarian = system: OVCAR-5 ovarian
OVCAR-8 ovarian = system: OVCAR-8 ovarian
PC-3 prostate = system: PC-3 prostate
RPMI-8226 leukemia = system: RPMI-8226 leukemia
RXF 393 renal = system: RXF 393 renal
SF-268 CNS = system: SF-268 CNS
SF-295 CNS = system: SF-295 CNS
SF-539 CNS = system: SF-539 CNS
SK-MEL-2 melanoma = system: SK-MEL-2 melanoma
SK-MEL-28 melanoma = system: SK-MEL-28 melanoma
SK-MEL-5 melanoma = system: SK-MEL-5 melanoma
SK-OV-3 ovarian = system: SK-OV-3 ovarian
SN12C renal = system: SN12C renal
SNB-19 CNS = system: SNB-19 CNS
SR leukemia = system: SR leukemia
SW-620 colon = system: SW-620 colon
T-47D breast = system: T-47D breast
TK-10 renal = system: TK-10 renal
U251 CNS = system: U251 CNS
UACC-257 melanoma = system: UACC-257 melanoma
UACC-62 melanoma = system: UACC-62 melanoma
UO-31 renal = system: UO-31 renal

For `COc1ccc2c3nc4cc(C)c(C)cc4nc3n(CCN(C)C)c2c1`, the GI50 (NCI-H226 lung) was 1.58 µM, the TGI (NCI-H226 lung) was 3.81 µM and the GI50 (NCI-H23 lung) was 2.51 µM. It also gave a TGI (NCI-H23 lung) of 11.5 µM, a GI50 (NCI-H460 lung) of 1.21 µM and a TGI (NCI-H460 lung) of 3.2 µM. It also gave a GI50 (NCI-H522 lung) of 0.665 µM, a TGI (NCI-H522 lung) of 7.87 µM and a GI50 (NCI/ADR-RES ovarian) of 2.28 µM. The TGI (NCI/ADR-RES ovarian) was 12 µM, the GI50 (OVCAR-3 ovarian) was 2.24 µM and the TGI (OVCAR-3 ovarian) was 5.23 µM. The GI50 (OVCAR-4 ovarian) was 2.82 µM, the TGI (OVCAR-4 ovarian) was 16.2 µM and the GI50 (OVCAR-5 ovarian) was 2.96 µM. For the same molecule, the TGI (OVCAR-5 ovarian) was 12.6 µM, the GI50 (OVCAR-8 ovarian) was 1.43 µM and the TGI (OVCAR-8 ovarian) was 3.47 µM. For the same molecule, the GI50 (PC-3 prostate) was 1.58 µM, the TGI (PC-3 prostate) was 12.9 µM and the GI50 (RPMI-8226 leukemia) was 1.81 µM. The TGI (RPMI-8226 leukemia) was 4.85 µM, the GI50 (RXF 393 renal) was 2.38 µM and the TGI (RXF 393 renal) was 9.71 µM. For the same molecule, the GI50 (SF-268 CNS) was 3.41 µM, the TGI (SF-268 CNS) was 16.2 µM and the GI50 (SF-295 CNS) was 1.65 µM. For the same molecule, the TGI (SF-295 CNS) was 5.55 µM, the GI50 (SF-539 CNS) was 1.49 µM and the TGI (SF-539 CNS) was 2.98 µM. For the same molecule, the GI50 (SK-MEL-2 melanoma) was 3.88 µM, the TGI (SK-MEL-2 melanoma) was 15.8 µM and the GI50 (SK-MEL-28 melanoma) was 3.23 µM. The TGI (SK-MEL-28 melanoma) was 11.9 µM, the GI50 (SK-MEL-5 melanoma) was 1.5 µM and the TGI (SK-MEL-5 melanoma) was 2.98 µM. For the same molecule, the GI50 (SK-OV-3 ovarian) was 3.58 µM, the TGI (SK-OV-3 ovarian) was 16.2 µM and the GI50 (SN12C renal) was 1.54 µM. It also gave a TGI (SN12C renal) of 5.96 µM, a GI50 (SNB-19 CNS) of 3.42 µM and a TGI (SNB-19 CNS) of 16.3 µM. The GI50 (SR leukemia) was 1.32 µM, the TGI (SR leukemia) was 5.33 µM and the GI50 (SW-620 colon) was 1.27 µM. The TGI (SW-620 colon) was 8.47 µM, the GI50 (T-47D breast) was 1.78 µM and the TGI (T-47D breast) was 13.6 µM. It also gave a GI50 (TK-10 renal) of 6.87 µM, a TGI (TK-10 renal) of 19 µM and a GI50 (U251 CNS) of 1.39 µM. The TGI (U251 CNS) was 3.89 µM, the GI50 (UACC-257 melanoma) was 3.97 µM and the TGI (UACC-257 melanoma) was 15.1 µM. It also gave a GI50 (UACC-62 melanoma) of 1.61 µM, a TGI (UACC-62 melanoma) of 5.2 µM and a GI50 (UO-31 renal) of 0.542 µM. The TGI (UO-31 renal) was 7.76 µM.
